Experimental data taken from patent publication US20070148232A1, “Stabilized pharmaceutical solid compositions of low-solubility drugs and poloxamers, and stabilizing polymers” (Pfizer Inc., priority 2003, published 2007).
In brackets after ≈: the same amount, converted by molar mass.

Assays:
Type in all cases: physicochemical
[1] = in vitro dissolution test of Drug 2 compositions in PBS; details: dose 1000 μg/mL; for AUC90 / MDC90: initial ninety minutes; for AUC / Drug 2 Concentration: PBS, 37° C.
Description: The solid composition of Example 1 was evaluated in an in vitro dissolution test as follows. For each test, the composition was added to microcentrifuge tubes in duplicate. A 4.21 mg sample of the composition was added to each tube for a total concentration of 1000 μg/mL drug, if all of the drug had dissolved. The tubes were placed in a 37° C. temperature-controlled chamber, and 1.8 mL PBS containing 0.5 wt % sodium taurocholic acid and 1-palmitoyl-2-oleyl-sn-glycero-3-phosphocholine (NaTC/POPC, with a […] weight ratio) at pH 6.5 and 290mOsm/kg (model fasted duodenal solution, “MFDS”) was added to each respective tube. The samples were quickly mixed using a vortex mixer for about 60 seconds. The samples were centrifuged at 13,000 G at 37° C. for 1 minute. The resulting supernatant solution was then sampled and diluted 1:6 (by volume) with methanol and then analyzed by high-performance liquid chromatography (HPLC). The contents of each respective tube were mixed on the vortex mixer and allowed to stand undisturbed at 37° C. until the next sample was taken. Samples were collected at 4, 10, 20, 40, 90, and 1200 minutes.
A sufficient amount of the composition was added to each tube (in duplicate) for a total concentration of 1000 μg/mL drug, if all of the drug had dissolved. The tubes were placed in a 37° C. temperature-controlled chamber, and 1.8 mL PBS was added.
Control 5 (C5) consisted of crystalline Drug 2 alone, tested in PBS, and a sufficient amount of material was added so that the concentration of drug would have been 1000 μg/mL, if all the drug had dissolved.
A sufficient amount of the composition was added to each tube (in duplicate) for a total concentration of 1000 μg/mL drug, if all of the drug has dissolved. The tubes were placed in a 37° C. temperature-controlled chamber, and 1.8 mL PBS was added.
As a control (C6), a composition consisting of 25 wt % Drug 2 and 75 wt % HPMCAS-HF was formed using the rotoevaporation process described for Example 6. The composition was tested in vitro, and a sufficient amount of material was added to PBS so that the concentration of drug would have been 1000 μg/mL, if all of the drug had dissolved.

[2] = in vitro dissolution test of Drug 1 compositions in MFDS; details: dose 1000 μg/mL; for AUC / Drug 1 Concentration: MFDS, 37° C.
Description: The solid composition of Example 1 was evaluated in an in vitro dissolution test as follows. For each test, the composition was added to microcentrifuge tubes in duplicate. […] The samples were quickly mixed using a vortex mixer for about 60 seconds. The samples were centrifuged at 13,000 G at 37° C. for 1 minute. The resulting supernatant solution was then sampled and diluted 1:6 (by volume) with methanol and then analyzed by high-performance liquid chromatography (HPLC). The contents of each respective tube were mixed on the vortex mixer and allowed to stand undisturbed at 37° C. until the next sample was taken. Samples were collected at 4, 10, 20, 40, 90, and 1200 minutes. As a control (C1), crystalline Drug 1 alone was added 1.8 mL of MFDS, at a sufficient amount so that the concentration of drug would have been 1000 μg/mL, if all of the drug had dissolved. […] Control C2 consisted of 50 wt % Drug 1 and 50 wt % HPMC. The composition was formed by first forming a spray solution consisting of […] Drug 1 and 250 mg HPMC in 58.7 gm of a 50.7:8 w/w mixture of acetone:water. This solution was pumped into a “mini” spray-drying apparatus via a Cole Parmer 74900 series rate-controlling syringe pump at a rate of 70 ml/hr. The spray solution was atomized through a Spraying Systems Co. two-fluid nozzle, Model No. SU1A, using a heated stream of nitrogen at a flow rate of 1 SCFM. The spray solution was sprayed into an 11-cm diameter stainless steel chamber. The heated gas entered the chamber at an inlet temperature of 110° C. and exited at ambient temperature. The resulting solid composition was collected on filter paper, dried under vacuum, and stored in a desiccator. This composition was tested in a dissolution test using the procedures described above except that a sufficient amount of the composition was added so that the concentration if all of the drug had dissolved would have been 3000 μg/mL. The stability of the solid composition of Example 1 was evaluated in an accelerated storage test. The composition was stored under elevated temperature and humidity conditions to increase the rate of physical changes occurring in the material in order to simulate a longer storage interval in a typical storage environment. A sample of the composition was stored for 3 weeks at 40° C./75% RH.

[3] = solubility in PBS, pH 6.5; details: pH 6.5, aqueous buffer
[4] = glass transition temperature (Tg) by DSC; details: at less than 5% RH
Text: A solid composition was formed by a spray-drying process as follows. […] A spray solution was formed containing 2.5 wt % Viracept, 1.5 wt % Pluronic F127, 1.0 wt % HPMC, 85.5 wt % methanol, and 9.5 wt % water. The solution was mixed until the polymers and drug had all dissolved. The spray solution was pumped using a high-pressure pump to a spray drier (a Niro type XP Portable Spray-Dryer with a Liquid-Feed Process Vessel (“PSD-1”)), equipped with a pressure nozzle (model WG-126, from Delavan LTV). The PSD-1 was equipped with a 5-foot 9-inch chamber extension. The chamber extension was added to the spray dryer to increase the vertical length of the dryer. The added length increased the residence time within the dryer, which allowed the product to dry before reaching the angled section of the spray dryer. The spray drier was also equipped with a 316 SS circular diffuser plate with 1/16-inch drilled holes, having a 1% open area. […] The Tg of the resulting composition was determined by DSC to be about 107° C. at less than 5% RH.
Solid compositions containing Drug 1 were prepared using various amounts of poloxamer 407 and the stabilizing polymers hydroxypropyl methyl cellulose and hydroxypropyl methyl cellulose acetate succinate as described below. […] The Tg of each composition, measured at a relative humidity of less than 10%, is also included in Table 6.

[5] = in vitro dissolution test of Drug 1 compositions in PBS; details: dose 1000 μg/mL; for AUC / Drug 1 Concentration: PBS, 37° C.
Description: The solid composition of Example 1 was evaluated in an in vitro dissolution test as follows. For each test, the composition was added to microcentrifuge tubes in duplicate. […] The samples were quickly mixed using a vortex mixer for about 60 seconds. The samples were centrifuged at 13,000 G at 37° C. for 1 minute. The resulting supernatant solution was then sampled and diluted 1:6 (by volume) with methanol and then analyzed by high-performance liquid chromatography (HPLC). The contents of each respective tube were mixed on the vortex mixer and allowed to stand undisturbed at 37° C. until the next sample was taken. Samples were collected at 4, 10, 20, 40, 90, and 1200 minutes. […] The tubes were placed in a 37° C. temperature-controlled chamber, and 1.8 mL PBS was added. As a control (C4), crystalline Drug 1 alone was tested in PBS and a sufficient amount of material was added so that the concentration of drug would have been 1000 μg/mL, if all of the drug had dissolved.

[6] = Drug 1, MFDS, initial ninety minutes
[7] = Drug 1, PBS, initial ninety minutes

Compound: Cc1c(O)cccc1C(=O)N[C@@H](CSc1ccccc1)[C@H](O)CN1C[C@H]2CCCC[C@H]2C[C@H]1C(=O)NC(C)(C)C [Drug 1, N-(1,1-dimethylethyl)decahydro-2-[(2R,3R)-2-hydroxy-3[(3-hydroxy-2-methylbenzoyl)amino]-4-(phenylthio)butyl]-3-isoquinolinecarboxamide (3s, 4aS, 8aS)-monomethanesulfonate]
- AUC90 ([1]; Drug 2, PBS): <100 µg·min/mL
- MDC90 ([1]; Drug 2, PBS): <1 µg/mL
- AUC90 [2, 6]: 9,500 min*μg/mL
- MDC90 [2, 6]: 118 µg/mL
- AUC ([2]; 0 min): 0 µg·min/mL
- Drug 1 Concentration ([2]; 0 min): 0 µg/mL
- AUC ([2]; 4 min): 160 µg·min/mL
- Drug 1 Concentration ([2]; 4 min): 80 µg/mL
- AUC ([2]; 10 min): 700 µg·min/mL
- Drug 1 Concentration ([2]; 10 min): 98 µg/mL
- AUC ([2]; 20 min): 1,700 min*μg/mL
- Drug 1 Concentration ([2]; 20 min): 102 µg/mL
- AUC ([2]; 40 min): 3,800 min*μg/mL
- Drug 1 Concentration ([2]; 40 min): 108 µg/mL
- AUC ([2]; 90 min): 9,500 min*μg/mL
- Drug 1 Concentration ([2]; 90 min): 118 µg/mL
- AUC ([2]; 1200 min): 247,000 min*μg/mL
- Drug 1 Concentration ([2]; 1200 min): 310 µg/mL
- solubility [3]: ~20 µg/mL (≈ 35.2 µM)
- Tg [4]: 119 °C
- AUC90 [5, 7]: 285 µg·min/mL
- MDC90 [5, 7]: 6 µg/mL
- AUC ([5]; 0 min): 0 µg·min/mL
- Drug 1 Concentration ([5]; 0 min): 0 µg/mL
- AUC ([5]; 4 min): 11 µg·min/mL
- Drug 1 Concentration ([5]; 4 min): 5 µg/mL
- AUC ([5]; 10 min): 46 µg·min/mL
- Drug 1 Concentration ([5]; 10 min): 6 µg/mL
- AUC ([5]; 20 min): 106 µg·min/mL
- Drug 1 Concentration ([5]; 20 min): 6 µg/mL
- AUC ([5]; 40 min): 180 µg·min/mL
- Drug 1 Concentration ([5]; 40 min): 2 µg/mL
- AUC ([5]; 90 min): 285 µg·min/mL
- Drug 1 Concentration ([5]; 90 min): 2 µg/mL
- AUC ([5]; 1200 min): 12,730 min*μg/mL
- Drug 1 Concentration ([5]; 1200 min): 20 µg/mL

Compound: CCOC(=O)N1c2ccc(C(F)(F)F)cc2[C@@H](N(Cc2cc(C(F)(F)F)cc(C(F)(F)F)c2)C(=O)OC)C[C@H]1CC [Drug 2, [2R,4S] 4-[(3,5-bis-trifluoromethyl-benzyl)-methoxycarbonyl-amino]-2-ethyl-6-trifluoromethyl-3,4-dihydro-2H-quinoline-1-carboxylic acid ethyl ester]
- C1200 ([1]; Drug 2, PBS, concentration of drug at 1200 minutes): <1 µg/mL
- AUC90 ([1]; Drug 2, PBS): <100 µg·min/mL
- MDC90 ([1]; Drug 2, PBS): <1 µg/mL
- AUC ([1]; 0 min): <100 µg·min/mL
- Drug 2 Concentration ([1]; 0 min): <1 µg/mL
- AUC ([1]; 4 min): <100 µg·min/mL
- Drug 2 Concentration ([1]; 4 min): <1 µg/mL
- AUC ([1]; 10 min): <100 µg·min/mL
- Drug 2 Concentration ([1]; 10 min): <1 µg/mL
- AUC ([1]; 20 min): <100 µg·min/mL
- Drug 2 Concentration ([1]; 20 min): <1 µg/mL
- AUC ([1]; 40 min): <100 µg·min/mL
- Drug 2 Concentration ([1]; 40 min): <1 µg/mL
- AUC ([1]; 90 min): <100 µg·min/mL
- Drug 2 Concentration ([1]; 90 min): <1 µg/mL
- AUC ([1]; 1200 min): <100 µg·min/mL
- Drug 2 Concentration ([1]; 1200 min): <1 µg/mL
- solubility [3]: < 1 µg/mL
- Tg [4]: about 30 °C
